The values that follow come from US20010044445A1, “AZOLE INHIBITORS OF CYTOKINE PRODUCTION” (priority 1999, published 2001).

Each structure is given as a SMILES string. pIC50: −log10 of the molar value.

Series [1] deals with Human peripheral blood mononuclear cells. As to the kind of experiment: Human Concanavalin-A Proliferation Assay (Con HU Assay). Format: cell-based. As to conditions: concanavalin-A stimulated human PBMC; for % Inhibition of proliferation (at concentrations of 1,10, or 100 μm) / inhibition at 1 µM: concentration 1 μm (in parentheses in the cell); for % Inhibition of proliferation (at concentrations of 1,10, or 100 μm) / inhibition at 1 µM / inhibition at 10 µM / inhibition at 100 µM: 3 days; for inhibition at 1 µM / inhibition at 10 µM / pIC50 / inhibition at 100 µM: Homo sapiens, PBMC; for inhibition at 1 µM / inhibition at 10 µM / inhibition at 100 µM: 72 h, read-out: % Inhibition of proliferation (at concentrations of 1,10, or 100 μm); for inhibition at 10 µM: concentration 10 μm (in parentheses in the cell); for pIC50: tritiated thymidine; for inhibition at 100 µM: concentration 100 μm (in parentheses in the cell). The essentials: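 Proliferation read as tritiated thymidine uptake (0.5 μCi/well, 6 h pulse on day 3) in human PBMC cultured 3 days with 2.5 μg/ml (final) concanavalin-A. Cells, 50,000 per well in supplemented RPMI 1640 with 10% FBS, received compound 15 min before mitogen.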

The term melting point denotes the temperature, or range, at which the solid turns liquid. With `CC(C(=O)Nc1ccc(-n2nc(C(F)(F)F)cc2C(F)(F)F)cc1)c1ccc(C(=O)c2cccs2)cc1` (stereo not drawn) [Example 178, N-[4-[3,5-bis(trifluoromethyl)-1H-pyrazol-1-yl]phenyl]-α-methyl-4-(2-thienylcarbonyl)benzeneacetamide], the melting point is under 100 °C. In series [1], the “% Inhibition of proliferation (at concentrations of 1,10, or 100 μm)” value is on record as 14(1) %.

Take `N#CCC(=O)Nc1ccc(-n2nc(C(F)(F)F)cc2C(F)(F)F)cc1` [Example 52, N-[4-[3,5-bis(trifluoromethyl)-1H-pyrazol-1-yl]phenyl]-2-cyanoacetamide]: the melting point was 140 to 143 °C. The inhibition at 1 µM in series [1] was found to be 26%.

Regarding `CC(C(=O)Nc1ccc(-n2nc(C(F)(F)F)cc2C(F)(F)F)cc1)c1ccc(C(=O)c2cccs2)cc1` (stereo not drawn) [Example 177, N-[4-[3,5-bis(trifluoromethyl)-1H-pyrazol-1-yl]phenyl]-α-methyl-4-(2-thienylcarbonyl)benzeneacetamide], the melting point was under 80 °C. For the same compound, the “% Inhibition of proliferation (at concentrations of 1,10, or 100 μm)” value in series [1] is 4(1) %.

Compound `COc1c(C(=O)Nc2ccc(-n3nc(C(F)(F)F)cc3C(F)(F)F)cc2)csc1Cl` [Example 267, N-[4-[3,5-bis(trifluoromethyl)-1H-pyrazol-1-yl]phenyl]-5-chloro-4-methoxy-3-thiophenecarboxamide] gave a melting point of 119 to 120 °C. In addition, the inhibition at 1 µM in series [1] is 38%.

A word on the pIC50: it is −log10 of the IC50, conventionally taken in molar units. Read a low pIC50 as a high IC50. In the case of `O=C(Nc1ccc(-n2nc(C(F)(F)F)cc2C(F)(F)F)cc1)c1ccc(O)cc1` [Example 73, N-[4-[3,5-bis(trifluoromethyl)-1H-pyrazol-1-yl]phenyl]-4-hydroxybenzamide], the melting point is over 245 °C. In series [1], the inhibition at 10 µM stood at 93% and the pIC50 is 6.41.

Regarding `O=C(Nc1ccc(-n2nc(C(F)(F)F)cc2C(F)(F)F)cc1)c1c(F)cccc1C(F)(F)F` [Example 213, N-[4-[3,5-bis(trifluoromethyl)-1H-pyrazol-1-yl]phenyl]-2-fluoro-6-(trifluoromethyl)benzamide], the melting point was in the range of 175 to 176 °C. Further, in series [1], the inhibition at 10 µM stood at 100% and the negative logarithm of the IC50 (pIC50) was 6.36.

In the case of `Cc1noc(C)c1C(=O)Nc1ccc(-n2nc(C(F)(F)F)cc2C)cc1` [Example 283, 3,5-Dimethyl-N-[4-[5-methyl-3-(trifluoromethyl)-1H-pyrazol-1-yl]phenyl]-4-isoxazolecarboxamide], the melting point lay in the range of 180 to 181 °C. Further, in series [1], the inhibition at 100 µM amounted to 99% and the pIC50 was 5.98.

Take `O=C(Nc1ccc(-n2nc(C(F)(F)F)cc2C(F)(F)F)cc1)c1ccccc1F` [Example 114, N-[4-[3,5-bis(trifluoromethyl)-1H-pyrazol-1-yl]phenyl]-2-fluorobenzamide]: the melting point was in the range of 188 to 190 °C. Further, in series [1], the inhibition at 100 µM stood at 98% and the negative-log IC50 (pIC50) is 7.08.

`NC(=O)c1ccccc1NC(=O)c1ccc(-n2nc(C(F)(F)F)cc2C(F)(F)F)cc1` [Example 196, N-[2-(aminocarbonyl)phenyl]-4-[3,5-bis(trifluoromethyl)-1H-pyrazol-1-yl]benzamide] showed a melting point of 195 to 196 °C. The inhibition at 1 µM in series [1] is 11%.

Compound `CN(C)c1cccc(C(=O)Nc2ccc(-n3nc(C(F)(F)F)cc3C(F)(F)F)cc2)c1` [Example 88, N-[4-[3,5-bis(trifluoromethyl)-1H-pyrazol-1-yl]phenyl]-3-(dimethylamino)benzamide] came in with a melting point of 180 to 181 °C. In addition, the inhibition at 1 µM in series [1] worked out at 29%.

Consider `COc1cccc(C(=O)Nc2ccc(-n3nc(C(F)(F)F)cc3C(F)(F)F)cc2)c1` [Example 145, N-[4-[3,5-bis(trifluoromethyl)-1H-pyrazol-1-yl]phenyl]-3-methoxybenzamide], for which the melting point lay in the range of 169 to 172 °C. In series [1], the inhibition at 100 µM is 94% and the pIC50 is 5.80.

As to `N#Cc1cccc(NC(=O)c2ccc(-n3nc(C(F)(F)F)cc3C(F)(F)F)cc2)c1` [Example 186, 4-[3,5-Bis(trifluoromethyl)-1H-pyrazol-1-yl]-N-(3-cyanophenyl)benzamide], the melting point fell in the range of 195 to 196 °C. Further, the inhibition at 1 µM in series [1] is 14%.

`O=C(Nc1ccc(-n2nc(C(F)(F)F)cc2C(F)(F)F)cc1)c1cccc(C(F)(F)F)c1` [Example 101, N-[4-[3,5-bis(trifluoromethyl)-1H-pyrazol-1-yl]phenyl]-3-(trifluoromethyl)benzamide] had a melting point of 143 to 145 °C. Besides, in series [1], the inhibition at 100 µM worked out at 100% and the pIC50 was 5.65.

In turn, `O=C(Nc1ccc(-n2nc(C(F)(F)F)cc2C(F)(F)F)cc1)c1cnns1` [Example 244, N-[4-[3,5-bis(trifluoromethyl)-1H-pyrazol-1-yl]phenyl]-1,2,3-thiadiazole-5-carboxamide] yielded a melting point of 213 to 214 °C. In series [1], the inhibition at 10 µM amounted to 94% and the negative logarithm of the IC50 (pIC50) was 6.28.

`O=C(Nc1c(F)cccc1F)c1ccc(-n2nc(C(F)(F)F)cc2C(F)(F)F)cc1` [Example 191, 4-[3,5-Bis(trifluoromethyl)-1H-pyrazol-1-yl]-N-(2,6-difluorophenyl)benzamide]: the melting point lay within 187 to 188 °C. For the same compound, in series [1], the inhibition at 1 µM came to 99% and the negative-log IC50 (pIC50) was 6.94.

The compound `O=C(Nc1ccc(-n2nc(C(F)(F)F)cc2OC(F)F)cc1)c1ccccc1F` [Example 352, N-(4-(5-(difluoromethoxy)-3-(trifluoromethyl)-1H-pyrazol-1-yl)phenyl)-2-fluorobenzamide] registered a melting point of 130 to 131 °C. Also, the pIC50 in series [1] is 6.85.

`O=C(Nc1ccc(-n2nc(C(F)(F)F)cc2C(F)(F)F)cc1)c1ccc(Cl)cc1F` [Example 296, N-(4-(3,5-bis(trifluoromethyl)-1H-pyrazol-1-yl)phenyl)-4-chloro-2-fluorobenzamide] registered a melting point of 156 to 158 °C. Moreover, the pIC50 in series [1] is 7.36.

For `Cc1nnsc1C(=O)Nc1ccc(-n2nc(C(F)(F)F)cc2C#N)cc1` [Example 302, N-(4-(5-cyano-3-(trifluoromethyl)-1H-pyrazol-1-yl)phenyl)-4-methyl-1,2,3-thiadiazole-5-carboxamide], the melting point is 193 to 195 °C. In series [1], this compound gave a negative logarithm of the IC50 (pIC50) of 6.45.

Compound `O=C(Nc1ccc(-n2nc(C(F)(F)F)cc2C(F)(F)F)cc1)c1ccc(Cl)nc1` [Example 249, N-[4-[3,5-bis(trifluoromethyl)-1H-pyrazol-1-yl]phenyl]-6-chloro-3-pyridinecarboxamide] registered a melting point of 192 to 194 °C. Further, in series [1], the inhibition at 10 µM is 100% and the pIC50 is 6.74.

Compound `O=C(Nc1ccc(-n2nc(C(F)(F)F)cc2C(F)(F)F)cc1)c1ccccc1C(=O)c1ccccc1` [Example 22, 2-Benzoyl-N-[4-[3,5-bis(trifluoromethyl)-1H-pyrazol-1-yl]phenyl]benzamide] returned a melting point of 204 to 205 °C. Besides, the inhibition at 1 µM in series [1] was determined as 14%.

For the compound `O=C(Nc1cccc(-n2nc(C(F)(F)F)cc2C(F)(F)F)c1)c1cccc(Cl)c1Cl` [Example 198, N-[3-[3,5-bis(trifluoromethyl)-1H-pyrazol-1-yl]phenyl]-2,3-dichlorobenzamide], the melting point was in the range of 119 to 121 °C. Besides, the inhibition at 1 µM in series [1] was determined as 4%.

Regarding `O=C(Nc1ccc(-n2nc(C(F)(F)F)cc2C(F)(F)F)cc1)c1cc(Cl)nc(Cl)c1` [Example 269, N-[4-[3,5-bis(trifluoromethyl)-1H-pyrazol-1-yl]phenyl]-2,6-dichloro-4-pyridinecarboxamide], the melting point fell in the range of 215 to 216 °C. Besides, in series [1], the inhibition at 10 µM is 99% and the pIC50 is 6.41.

`O=C(Nc1ccc(-n2nc(C(F)(F)F)cc2C(F)(F)F)cc1)c1ccccc1Cl` [Example 91, N-[4-[3,5-bis(trifluoromethyl)-1H-pyrazol-1-yl]phenyl]-2-chlorobenzamide] yielded a melting point of 155 to 157 °C. Moreover, in series [1], the inhibition at 100 µM came to 99% and the pIC50 is 6.86.

Regarding `O=C(Nc1ccc(-n2nc(C(F)(F)F)cc2C(F)(F)F)cc1)c1cccnc1Cl` [Example 150, N-[4-[3,5-bis(trifluoromethyl)-1H-pyrazol-1-yl]phenyl]-2-chloro-3-pyridinecarboxamide], the melting point fell in the range of 145 to 147 °C. Besides, in series [1], the inhibition at 100 µM was found to be 100% and the pIC50 is 6.61.

The compound `CCCCCc1ccc(C(=O)Nc2ccc(-n3nc(C(F)(F)F)cc3C(F)(F)F)cc2)c(=O)o1` [Example 4, N-[4-[3,5-bis(trifluoromethyl)-1H-pyrazol-1-yl]phenyl]-2-oxo-6-pentyl-2H-pyran-3-carboxamide] gave a melting point of 140 to 141 °C. In series [1], the inhibition at 100 µM was found to be 82% and the pIC50 is 4.54.

For `O=C(Nc1ccc(-n2nc(C(F)(F)F)cc2C(F)(F)F)cc1)c1c(F)cccc1Cl` [Example 212, N-[4-[3,5-bis(trifluoromethyl)-1H-pyrazol-1-yl]phenyl]-2-chloro-6-fluorobenzamide], the melting point fell in the range of 165 to 167 °C. In addition, in series [1], the inhibition at 10 µM was found to be 99% and the pIC50 was 7.15.

Take `Cc1nc(C)n(-c2ccc(NC(=O)c3snnc3C)cc2)n1` [Example 289, N-[4-(3,5-dimethyl-1H-1,2,4-triazol-1-yl)phenyl]-4-methyl-1,2,3-thiadiazole-5-carboxamide]: the melting point fell in the range of 144 to 145 °C. In addition, the inhibition at 1 µM in series [1] came to 22%.
